Experimental data published in article PMC5486975 (European journal of medicinal chemistry, 2017).

Assays:
[1] = test system: PWR-1E non-neoplastic human prostate epithelial cells; experiment: WST-1 cell proliferation assay, PWR-1E; assay type: cell-based
[2] = test system: DU145 human androgen-insensitive prostate cancer cell line; experiment: WST-1 cell proliferation assay, DU145; assay type: cell-based
[3] = test system: PC-3 cells; conditions: cited from earlier work
[4] = test system: PC-3 human androgen-insensitive prostate cancer cell line; experiment: WST-1 cell proliferation assay, PC-3; assay type: cell-based
[5] = test system: LNCaP human androgen-sensitive prostate cancer cell line; experiment: WST-1 cell proliferation assay, LNCaP; assay type: cell-based
[6] = fold potency relative to curcumin

COc1cc(/C=C/C(=O)CC(=O)/C=C/c2ccc(O)c(OC)c2)ccc1O [Curcumin]
IC50 ([1]; Homo sapiens, PWR-1E, 72 h, read-out: IC50 (μM) PWR-1E): 8.14 to 9.54 µM
IC50(curcumin)/IC50(trienone) PWR-1E [1, 6]: 1
IC50 ([2]; Homo sapiens, DU-145, 72 h, read-out: IC50 (μM) DU145): 26.2 ± 0.65 µM
IC50(curcumin)/IC50(trienone) DU145 [2, 6]: 1
effect on PC-3 cell cycle progression [3]: arresting the G1/S phase
IC50 ([4]; Homo sapiens, 72 h, read-out: IC50 (μM) PC-3): 25.4 ± 2.15 µM
IC50(curcumin)/IC50(trienone) PC-3 [4, 6]: 1
IC50 ([5]; Homo sapiens, LNCaP, 72 h, read-out: IC50 (μM) LNCaP): 13.6 ± 2.69 µM
IC50(curcumin)/IC50(trienone) LNCaP [5, 6]: 1
